Data: US9650361B2, “N-(pyridin-2-yl)pyrimidin-4-amine derivatives containing a sulfoximine group” (BAYER PHARAM AKTIENGESELLSCHAFT, priority 2012, dated 2017)

Legend:
CDK9/CycT1 = molecular target: T1, CDK9/CycT1 (Homo sapiens, UniProt P50750); experiment: CDK9/CycT1 high ATP kinase assay (Method 1b); format: biochemical; conditions: 2 mM ATP
T1 construct: Recombinant full-length His-tagged human CDK9 and CycT1; His; purchased Invitrogen PV4131; host or cells: insect cells
Description: 1b. CDK9/CycT1 High ATP Kinase Assay
CDK9/CycT1-inhibitory activity of compounds of the present invention at a high ATP concentration after preincubation of enzyme and test compounds was quantified employing the CDK9/CycT1 TR-FRET assay as described in the following paragraphs.
Recombinant full-length His-tagged human CDK9 and CycT1, expressed in insect cells and purified by Ni-NTA affinity chromatography, were purchase from Invitrogen (Cat. No PV4131). As substrate for the kinase reaction biotinylated peptide biotin-Ttds-YISPLKSPYKISEG (C-terminus in amid form) was used which can be purchased e.g. form the company JERINI peptide technologies (Berlin, Germany).
(§1) For the assay 50 nl of a 100 fold concentrated solution of the test compound in DMSO was pipetted into a black low volume 384 well microtiter plate (Greiner Bio-One, Frickenhausen, Germany), 2 μl of a solution of CDK9/CycT1 in aqueous assay buffer [50 mM Tris/HCl pH 8.0, 10 mM MgCl2, 1.0 mM dithiothreitol, 0.1 mM sodium ortho-vanadate, 0.01% (v/v) Nonidet-P40 (Sigma)] were added and the mixture was incubated for 15 min at 22° C. to allow pre-binding of the test compounds to the enzyme before the start of the kinase reaction. Then the kinase reaction was started by the addition of 3 μl of a solution of adenosine-tri-phosphate (ATP, 3.3 mM=>final conc. in the 5 μl assay volume is 2 mM) and substrate (1.67 μM=>final conc. in the 5 μl assay volume is 1 μM) in assay buffer and the resulting mixture was incubated for a reaction time of 25 min at 22° C. The concentration of CDK9/CycT1 was adjusted depending of the activity of the enzyme lot and was chosen appropriate to have the assay in the linear range, typical concentrations were in the range of 0.5 μg/ml. The reaction was stopped by the addition of 5 μl of a solution of TR-FRET detection reagents (0.2 μM streptavidine-XL665 [Cisbio Bioassays, Codolet, France] and 1 nM anti-RB(pSer807/pSer811)-antibody from BD Pharmingen [#558389] and 1.2 nM LANCE EU-W1024 labeled anti-mouse IgG antibody [Perkin-Elmer, product no. AD0077]) in an aqueous EDTA-solution (100 mM EDTA, 0.2% (w/v) bovine serum albumin in 100 mM HEPES/NaOH pH 7.0).
(§2) The resulting mixture was incubated 1 h at 22° C. to allow the formation of complex between the phosphorylated biotinylated peptide and the detection reagents. Subsequently the amount of phosphorylated substrate was evaluated by measurement of the resonance energy transfer from the Eu-chelate to the streptavidine-XL. Therefore, the fluorescence emissions at 620 nm and 665 nm after excitation at 350 nm was measured in a HTRF reader, e.g. a Rubystar (BMG Labtechnologies, Offenburg, Germany) or a Viewlux (Perkin-Elmer). The ratio of the emissions at 665 nm and at […] was taken as the measure for the amount of phosphorylated substrate. The data were normalised (enzyme reaction without inhibitor=0% inhibition, all other assay components but no enzyme=100% inhibition).

CDK2/CycE = molecular target: T2, CDK2/CycE (Homo sapiens, UniProt P24941); experiment: CDK2/CycE kinase assay (Method 2a); format: biochemical; conditions: 10 μM ATP
T2 construct: GST; purchased ProQinase GmbH (Freiburg, Germany); host or cells: insect cells (Sf9)
Excerpt: 2a. CDK2/CycE Kinase Assay:
CDK2/CycE-inhibitory activity of compounds of the present invention was quantified employing the CDK2/CycE TR-FRET assay as described in the following paragraphs:
Recombinant fusion proteins of GST and human CDK2 and of GST and human CycE, expressed in insect cells (Sf9) and purified by Glutathion-Sepharose affinity chromatography, were purchased from ProQinase GmbH (Freiburg, Germany) As substrate for the kinase reaction biotinylated peptide biotin-Ttds-YISPLKSPYKISEG (C-terminus in amid form) was used which can be purchased e.g. form the company JERINI Peptide Technologies (Berlin, Germany).
as §1, with “of CDK2/CycE” for “of CDK9/CycT1”, “(ATP, 16.7” for “(ATP, 3.3 mM=>final conc. in the 5 μl assay volume is 2 mM) and substrate (1.67”, “is 10 μM) and substrate (1.25 μM=>final conc. in the 5 μl assay volume is 0.75” for “is 1”, “of 130 ng/ml.” for “of 0.5 μg/ml.”
as §2, with “TR-FRET” for “HTRF”

T1 sequence (P50750 whole entry): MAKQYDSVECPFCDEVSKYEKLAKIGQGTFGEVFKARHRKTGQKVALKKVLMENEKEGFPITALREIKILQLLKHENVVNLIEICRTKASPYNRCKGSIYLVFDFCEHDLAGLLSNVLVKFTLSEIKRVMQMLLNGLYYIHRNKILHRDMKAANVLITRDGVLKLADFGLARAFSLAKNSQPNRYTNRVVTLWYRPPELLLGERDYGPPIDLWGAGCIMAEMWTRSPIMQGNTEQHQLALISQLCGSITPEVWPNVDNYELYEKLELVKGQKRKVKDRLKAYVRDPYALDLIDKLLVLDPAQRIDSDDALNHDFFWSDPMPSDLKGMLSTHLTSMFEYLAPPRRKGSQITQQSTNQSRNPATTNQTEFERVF
T1 sequence (O60563 whole entry partner): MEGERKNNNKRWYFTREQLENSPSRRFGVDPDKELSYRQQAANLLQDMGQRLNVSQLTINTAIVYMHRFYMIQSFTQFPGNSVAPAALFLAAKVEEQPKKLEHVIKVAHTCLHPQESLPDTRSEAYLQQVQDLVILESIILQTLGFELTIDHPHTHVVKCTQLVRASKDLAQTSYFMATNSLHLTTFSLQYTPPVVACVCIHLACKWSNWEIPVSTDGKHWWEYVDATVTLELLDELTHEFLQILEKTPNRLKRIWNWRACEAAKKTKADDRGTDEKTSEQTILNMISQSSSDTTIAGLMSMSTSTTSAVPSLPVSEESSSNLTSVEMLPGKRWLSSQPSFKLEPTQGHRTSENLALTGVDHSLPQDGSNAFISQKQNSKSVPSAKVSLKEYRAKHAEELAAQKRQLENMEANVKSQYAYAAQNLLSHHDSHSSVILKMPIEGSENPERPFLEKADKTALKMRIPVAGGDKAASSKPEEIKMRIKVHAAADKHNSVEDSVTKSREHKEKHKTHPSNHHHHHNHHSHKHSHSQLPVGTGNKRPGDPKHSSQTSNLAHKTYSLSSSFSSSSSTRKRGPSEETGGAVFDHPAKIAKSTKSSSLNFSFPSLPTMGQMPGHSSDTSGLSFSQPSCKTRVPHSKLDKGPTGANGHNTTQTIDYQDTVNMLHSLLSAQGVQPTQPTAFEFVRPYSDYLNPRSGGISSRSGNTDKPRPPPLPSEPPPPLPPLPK

| SMILES | IC50 (CDK9/CycT1) [nM] | IC50 (CDK2/CycE) [nM] |
| --- | --- | --- |
| COc1cc(F)ccc1-c1cc(Nc2cc(CS(C)(=N)=O)ccn2)ncn1 (racemic) [Example 1, (rac)-6-(4-Fluoro-2-methoxyphenyl)-N-{4-[(S-methylsulfonimidoyl)methyl]pyridin-2-yl}pyrimidin-4-amine] | 49 | 600 |
| COc1cc(F)ccc1-c1cc(Nc2cc(CS(C)(=N)=O)cc(Cl)n2)ncn1 (racemic) [Example 4, (rac)-N-{6-Chloro-4-[(S-methylsulfonimidoyl)methyl]pyridin-2-yl}-6-(4-fluoro-2-methoxyphenyl)pyrimidin-4-amine] | 11 | 160 |
| COc1cc(F)ccc1-c1cc(Nc2cc(CS(C)(=N)=O)cc(C)n2)ncn1 (racemic) [Example 7, (rac)-6-(4-Fluoro-2-methoxyphenyl)-N-{6-methyl-4-[(S-methylsulfonimidoyl)methyl]pyridin-2-yl}pyrimidin-4-amine] | 4 | 280 |
| COc1cc(F)ccc1-c1cc(Nc2cc(CS(C)(=N)=O)cc(C(F)(F)F)n2)ncn1 (racemic) [Example 10, (rac)-6-(4-Fluoro-2-methoxyphenyl)-N-{4-[(S-methylsulfonimidoyl)methyl]-6-(trifluoromethyl)pyridin-2-yl}pyrimidin-4-amine] | 3 | 63 |
| COc1cc(F)ccc1-c1cc(Nc2cc(CS(C)(=N)=O)ccn2)ncn1 (single isomer, unassigned) [Example 2, 6-(4-Fluoro-2-methoxyphenyl)-N-{4-[(S-methylsulfonimidoyl)methyl]pyridin-2-yl}pyrimidin-4-amine] | 30 | 1300 |
| COc1cc(F)ccc1-c1cc(Nc2cc(CS(C)(=N)=O)ccn2)ncn1 (single isomer, unassigned) [Example 3, 6-(4-Fluoro-2-methoxyphenyl)-N-{4-[(S-methylsulfonimidoyl)methyl]pyridin-2-yl}pyrimidin-4-amine] | 10 | 660 |
| COc1cc(F)ccc1-c1cc(Nc2cc(CS(C)(=N)=O)cc(Cl)n2)ncn1 (single isomer, unassigned) [Example 5, N-{6-Chloro-4-[(S-methylsulfonimidoyl)methyl]pyridin-2-yl}-6-(4-fluoro-2-methoxyphenyl)pyrimidin-4-amine] | 9 | 56 |
| COc1cc(F)ccc1-c1cc(Nc2cc(CS(C)(=N)=O)cc(Cl)n2)ncn1 (single isomer, unassigned) [Example 6, N-{6-Chloro-4-[(S-methylsulfonimidoyl)methyl]pyridin-2-yl}-6-(4-fluoro-2-methoxyphenyl)pyrimidin-4-amine] | 5 | 94 |
| COc1cc(F)ccc1-c1cc(Nc2cc(CS(C)(=N)=O)cc(C)n2)ncn1 (single isomer, unassigned) [Example 8, 6-(4-Fluoro-2-methoxyphenyl)-N-{6-methyl-4-[(S-methylsulfonimidoyl)methyl]pyridin-2-yl}pyrimidin-4-amine] | 6 | 400 |
| COc1cc(F)ccc1-c1cc(Nc2cc(CS(C)(=N)=O)cc(C)n2)ncn1 (single isomer, unassigned) [Example 9, 6-(4-Fluoro-2-methoxyphenyl)-N-{6-methyl-4-[(S-methylsulfonimidoyl)methyl]pyridin-2-yl}pyrimidin-4-amine] | 2 | 330 |
